Test results: patent US20040044405A1, “Vascular stent or graft coated or impregnated with protein tyrosine kinase inhibitors and method of using same” (priority 2001, published 2004)

Key:
[1] = test system: PKC; settings: cited from earlier work
[2] = test system: Porcine aortic vascular endothelial cells; assay: Porcine aortic vascular endothelial cell proliferation, BrdU incorporation ELISA after VEGF stimulation; format: cell-based; settings: VEGF 20 ng/mL for 24 hours, STI-571, FIG. 2
Method: Porcine aortic vascular endothelial cells were grown to subconfluence in 96-well plates with DME media containing 10% FBS at 37° C. for 3 to 5 days. […] BrdU was added to the wells for the last 5 hours of the stimulation period. The cells were subsequently dried for 24 hours at 60° C., fixed and denatured, and BrdU incorporation determined using the Roche ELISA described in Example 1.

[3] = test system: Porcine coronary VSMCs; assay: Porcine coronary VSMC proliferation, BrdU incorporation ELISA after PDGF stimulation; format: cell-based; settings: PDGF 20 ng/mL, STI-571, FIG. 1
Method: BrdU was added to the wells for the last 5 hours of the stimulation period.

[4] = test system: human coronary artery vascular smooth muscle cells; assay: Migration of human coronary artery vascular smooth muscle cells through porous membrane in response to PDGF; format: cell-based; settings: PDGF-ββ 20 ng/ml, 24 hrs, normalized to control membranes, FIG. 5
Method: Migration was assayed by counting cells that migrated through a porous membrane (20 μm diameter pores) in 24 hours in response to stimulation with platelet-derived growth factor (PDGF-pp).
The initial seed density was 4000 cells per filter (0.3 cm^2) in test media with 1% BSA and 20 ng/ml PDGF-ββ. The cells were then incubated in a humidified environment at 37° C., 5% CO2 for 24 hrs. The cells on the top side of the filter were then scraped away. The cells on bottom side of the filters were then fixed with ice-cold methanol for 10 min. The filters were rinsed with PBS and then stained with HarrisAE Hematoxylin stain for 5 min. and again rinsed with PBS.
The cells were then counted manually under high-power magnification (400×) in quadruplicate.

[5] = test system: human coronary artery vascular smooth muscle cells; assay: DNA synthesis in human coronary artery vascular smooth muscle cells, BrdU assay; format: cell-based; settings: 10% FBS for 48 hours, FIG. 4

SMILES | inhibitory activity / specificity towards PKC [1] | proliferation of aortic vascular endothelial cells (BrdU incorporation) [2] | proliferation of VSMCs (BrdU incorporation) [3] | migration of human coronary vascular smooth muscle cells [4] | DNA synthesis in human coronary artery vascular smooth muscle cells (BrdU incorporation) [5]
O=C1NC(=O)c2cc(Nc3ccc(F)cc3)c(Nc3ccc(F)cc3)cc21 [CGP53353] | lower specificity towards PKC isozymes | – | – | – | –
O=C1NC(=O)c2cc(Nc3ccccc3)c(Nc3ccccc3)cc21 [CGP5211] | some inhibitory activity | – | – | – | –
Cc1ccc(NC(=O)c2ccc(CN3CCN(C)CC3)cc2)cc1Nc1nccc(-c2cccnc2)n1 [STI-571] | – | very minimal inhibitory effect | inhibited the proliferation of VSMCs in a dose-dependent fashion | inhibits the migration of human coronary vascular smooth muscle cells in a dose-dependent fashion | inhibits DNA synthesis
